{"source": "PubChem BioAssay AID248", "about": "(DTP/NCI, 2004)", "test_system": "L1210 leukemia ip in BDF1 mice, survival T/C", "assay": "NCI In Vivo Anticancer Drug Screen. Data for tumor model L1210 Leukemia (intraperitoneal) in B6D2F1 (BDF1) mice", "details": "endpoint: mean survival time, higher = longer survival", "procedure,_shortened": "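Antitumor effect is assessed in tumor-bearing animals. Survival in the compound arm is compared with a vehicle-dosed control arm and expressed as their quotient.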", "key": {"[1]": {"details": "dose: 25.0 mg/kg/injection, schedule: Q01DX009 (ip), vehicle: saline"}, "[2]": {"details": "dose: 50.0 mg/kg/injection, schedule: Q01DX009 (ip), vehicle: saline"}, "[3]": {"details": "dose: 100.0 mg/kg/injection, schedule: Q01DX009 (ip), vehicle: saline"}, "[4]": {"details": "dose: 100.0 mg/kg/injection, schedule: Q04DX002 (ip), vehicle: Klucel (hydroxypropylcellulose) (HPC)"}, "[5]": {"details": "dose: 200.0 mg/kg/injection, schedule: Q04DX002 (ip), vehicle: Klucel (hydroxypropylcellulose) (HPC)"}}, "note": "“And” between values parts separate entries of the source, which are not always exact repeats. Equal entries are not always repeated. Inconclusive results and toxic doses are left out.", "data": [{"smiles": "O=C(OC(=Nc1ccccc1)N(c1ccccc1)c1ccccc1)c1ccccc1", "values": [{"measurement": "T/C", "setting": "dose: 100.0 mg/kg/injection, schedule: Q01DX001 (ip), vehicle: saline", "value": "91 % of control"}, {"measurement": "T/C", "setting": "dose: 200.0 mg/kg/injection, schedule: Q01DX001 (ip), vehicle: saline", "value": "95 % of control"}, {"measurement": "T/C", "setting": "dose: 400.0 mg/kg/injection, schedule: Q01DX001 (ip), vehicle: saline", "value": "94 % of control"}]}, {"smiles": "CSc1ccc2c(c1)N(CCCN(C)C)c1ccccc1S2", "values": [{"measurement": "T/C", "setting": "dose: 0.78 mg/kg/injection, schedule: Q04DX003 (ip), vehicle: saline", "value": "98 % of control and 99 % of control"}, {"measurement": "T/C", "setting": "dose: 1.56 mg/kg/injection, schedule: Q04DX003 (ip), vehicle: saline", "value": "103 % of control and 107 % of control"}, {"measurement": "T/C", "setting": "dose: 3.12 mg/kg/injection, schedule: Q01DX009 (ip), vehicle: saline", "value": "103 % of control"}, {"measurement": "T/C", "setting": "dose: 3.12 mg/kg/injection, schedule: Q04DX003 (ip), vehicle: saline", "value": "98 % of control and 102 % of control"}, {"measurement": "T/C", "setting": "dose: 6.25 mg/kg/injection, schedule: Q01DX009 (ip), vehicle: saline", "value": "120 % of control"}, {"measurement": "T/C", "setting": "dose: 6.25 mg/kg/injection, schedule: Q04DX003 (ip), vehicle: saline", "value": "101 % of control and 107 % of control"}, {"measurement": "T/C", "setting": "dose: 12.5 mg/kg/injection, schedule: Q01DX009 (ip), vehicle: saline", "value": "122 % of control"}, {"measurement": "T/C", "setting": "dose: 12.5 mg/kg/injection, schedule: Q04DX003 (ip), vehicle: saline", "value": "104 % of control"}, {"measurement": "T/C", "setting": "dose: 25.0 mg/kg/injection, schedule: Q04DX003 (ip), vehicle: saline", "value": "109 % of control"}]}, {"smiles": "CCC(S)C(=O)Nc1ccccc1", "note": "(configuration not stated)", "values": [{"measurement": "T/C", "setting": "dose: 100.0 mg/kg/injection, schedule: Q04DX003 (ip), vehicle: saline with Tween-80", "value": "107 % of control"}, {"measurement": "T/C", "setting": "dose: 200.0 mg/kg/injection, schedule: Q04DX003 (ip), vehicle: saline with Tween-80", "value": "90 % of control"}, {"measurement": "T/C", "setting": "dose: 400.0 mg/kg/injection, schedule: Q04DX003 (ip), vehicle: saline with Tween-80", "value": "91 % of control"}]}, {"smiles": "c1cn2cncc2cn1", "values": [{"measurement": "T/C", "setting": "[1]", "value": "90 % of control"}, {"measurement": "T/C", "setting": "[2]", "value": "103 % of control"}, {"measurement": "T/C", "setting": "[3]", "value": "88 % of control"}, {"measurement": "T/C", "setting": "dose: 100.0 mg/kg/injection, schedule: Q04DX003 (ip), vehicle: saline", "value": "103 % of control"}, {"measurement": "T/C", "setting": "dose: 200.0 mg/kg/injection, schedule: Q04DX003 (ip), vehicle: saline", "value": "94 % of control"}]}, {"smiles": "CC(=O)N(C1=CC(=O)c2ccccc2C1=O)c1ccc(Cl)cc1", "values": [{"measurement": "T/C", "setting": "dose: 75.0 mg/kg/injection, schedule: Q01DX001 (ip), vehicle: carboxymethylcellulose (CMC)", "value": "98 % of control"}, {"measurement": "T/C", "setting": "dose: 150.0 mg/kg/injection, schedule: Q01DX001 (ip), vehicle: carboxymethylcellulose (CMC)", "value": "95 % of control"}, {"measurement": "T/C", "setting": "dose: 300.0 mg/kg/injection, schedule: Q01DX001 (ip), vehicle: carboxymethylcellulose (CMC)", "value": "97 % of control"}]}, {"smiles": "CCOC(=O)/C(O)=C\\c1n[n+]([O-])ccc1Cl", "values": [{"measurement": "T/C", "setting": "[4]", "value": "104 % of control"}, {"measurement": "T/C", "setting": "[5]", "value": "112 % of control"}, {"measurement": "T/C", "setting": "dose: 400.0 mg/kg/injection, schedule: Q04DX002 (ip), vehicle: Klucel (hydroxypropylcellulose) (HPC)", "value": "93 % of control"}]}, {"smiles": "COc1ccc(C(SCC(N)C(=O)O)(c2ccccc2)c2ccccc2)cc1", "note": "(configuration not stated)", "values": [{"measurement": "T/C", "setting": "dose: 7.4 mg/kg/injection, schedule: Q01DX009 (ip), vehicle: saline", "value": "122 % of control"}, {"measurement": "T/C", "setting": "[1]", "value": "166 % of control"}, {"measurement": "T/C", "setting": "[2]", "value": "183 % of control"}, {"measurement": "T/C", "setting": "[3]", "value": "100 % of control"}]}, {"smiles": "O=S(=O)(O)n1nc2ccccc2c1-c1ccccc1", "values": [{"measurement": "T/C", "setting": "dose: 100.0 mg/kg/injection, schedule: Q04DX002 (ip), vehicle: saline with Tween-80", "value": "96 % of control"}, {"measurement": "T/C", "setting": "dose: 200.0 mg/kg/injection, schedule: Q04DX002 (ip), vehicle: saline with Tween-80", "value": "96 % of control"}]}, {"smiles": "CCOC(=O)c1c[nH]c2c(c1=O)c(=O)n(C)c(=O)n2C", "values": [{"measurement": "T/C", "setting": "dose: 100.0 mg/kg/injection, schedule: Q01DX001 (ip), vehicle: Klucel (hydroxypropylcellulose) (HPC)", "value": "97 % of control"}, {"measurement": "T/C", "setting": "dose: 200.0 mg/kg/injection, schedule: Q01DX001 (ip), vehicle: Klucel (hydroxypropylcellulose) (HPC)", "value": "101 % of control"}, {"measurement": "T/C", "setting": "dose: 400.0 mg/kg/injection, schedule: Q01DX001 (ip), vehicle: Klucel (hydroxypropylcellulose) (HPC)", "value": "94 % of control"}]}, {"smiles": "Oc1ccc(O)c(-c2cc3c(O)ccc(O)c3[nH]2)c1", "values": [{"measurement": "T/C", "setting": "dose: 25.0 mg/kg/injection, schedule: Q04DX002 (ip), vehicle: Klucel (hydroxypropylcellulose) (HPC)", "value": "104 % of control"}, {"measurement": "T/C", "setting": "dose: 50.0 mg/kg/injection, schedule: Q04DX002 (ip), vehicle: Klucel (hydroxypropylcellulose) (HPC)", "value": "93 % of control"}, {"measurement": "T/C", "setting": "[4]", "value": "104 % of control"}, {"measurement": "T/C", "setting": "[5]", "value": "96 % of control"}]}, {"smiles": "Cc1nnc(NS(=O)(=O)c2ccc(N=Nc3c(N)n(C)c(=O)n(C)c3=O)cc2)s1", "values": [{"measurement": "T/C", "setting": "dose: 100.0 mg/kg/injection, schedule: Q01DX001 (ip), vehicle: carboxymethylcellulose (CMC)", "value": "101 % of control"}, {"measurement": "T/C", "setting": "dose: 200.0 mg/kg/injection, schedule: Q01DX001 (ip), vehicle: carboxymethylcellulose (CMC)", "value": "95 % of control"}, {"measurement": "T/C", "setting": "dose: 400.0 mg/kg/injection, schedule: Q01DX001 (ip), vehicle: carboxymethylcellulose (CMC)", "value": "89 % of control"}]}]}
